Reference: patent US6362181B1, “Isoquinolones” (Warner-Lambert Company, priority 1996, dated 2002)
Values after ≈ are worked out from the molar mass of the structure shown. Counter-ions that a name gives are not always drawn.

Assays:
B. subtilis RB1 = assay: Antibacterial assay, standard microtitration, MIC; type: cell-based; settings: Gram positive; for MIC: Bacillus subtilis, read-out: Minimum Inhibitory Concentrations, B. subtilis RB1
Procedure: (§1) The compounds of the present invention were tested against an assortment of gram negative and gram positive organisms using standard microtitration techniques (Cohen, et al., Antimicrob. Agents Chemother., 1985;28:766; Heifetz, et al. Antimicrob. Agents Chemother., 1974;6:124).

E. coli B90 = assay: Antibacterial assay, standard microtitration, MIC; type: cell-based; settings: Gram negative; for MIC: Escherichia coli, read-out: Minimum Inhibitory Concentrations, E. coli B90
Procedure: as §1

E. coli MC4100 = assay: Antibacterial assay, standard microtitration, MIC; type: cell-based; settings: Gram negative; for MIC: Escherichia coli, read-out: Minimum Inhibitory Concentrations, E. coli MC4100
Procedure: as §1

E. coli To1C = assay: Antibacterial assay, standard microtitration, MIC; type: cell-based; settings: for MIC: Escherichia coli, TO1C, read-out: Minimum Inhibitory Concentrations, E. coli To1C; for Minimum Inhibitory Concentrations, E. coli To1C: Gram negative
Procedure: as §1

S. aureus 29213 = assay: Antibacterial assay, standard microtitration, MIC; type: cell-based; settings: Gram positive; for MIC: Staphylococcus aureus, read-out: Minimum Inhibitory Concentrations, S. aureus 29213
Procedure: as §1

S. pyogenes C203 = assay: Antibacterial assay, standard microtitration, MIC; type: cell-based; settings: Gram positive; for MIC: Streptococcus pyogenes, read-out: Minimum Inhibitory Concentrations, S. pyogenes C203
Procedure: as §1

SMILES | melting point | MIC (B. subtilis RB1) | MIC (E. coli B90) | MIC (E. coli MC4100) | MIC (E. coli To1C) | MIC (S. aureus 29213) | MIC (S. pyogenes C203) | Minimum Inhibitory Concentrations, B. subtilis RB1 (B. subtilis RB1) | Minimum Inhibitory Concentrations, E. coli B90 (E. coli B90) | Minimum Inhibitory Concentrations, E. coli MC4100 (E. coli MC4100) | Minimum Inhibitory Concentrations, E. coli To1C (E. coli To1C) | Minimum Inhibitory Concentrations, S. aureus 29213 (S. aureus 29213) | Minimum Inhibitory Concentrations, S. pyogenes C203 (S. pyogenes C203)
O=C1c2cccc3c(N4CCNCC4)c([N+](=O)[O-])cc(c23)C(=O)N1O | 300 to 302 °C | – | – | – | – | – | – | – | – | – | – | – | –
NCC1CCN(c2c(Cl)cc3c4c(cccc24)C(=O)N(O)C3=O)C1 (stereo not drawn) (as salt: HCl) [Example 85] | 229 to 232 °C | – | – | – | – | – | – | – | – | – | – | – | –
CC1(CN)CCN(c2c(Cl)cc3c4c(cccc24)C(=O)N(O)C3=O)C1 (stereo not drawn) (as salt: TFA) [Example 89] | 160 to 166 °C | – | – | – | – | – | – | – | – | – | – | – | –
CN1CCN(c2c(Cl)cc3c4c(cccc24)C(=O)N(O)C3=O)CC1 (as salt: TFA) [Example 98] | > 250 °C | – | – | – | – | – | – | – | – | – | – | – | –
CCOc1cc2c3c(cccc3c1)C(=O)N(O)C2=O [Example 14, 5-Ethoxy-2-hydroxy-benzo[de]isoquinoline-1,3-dione] | – | 1 µg/mL (≈ 3.89 µM) | 0.25 µg/mL (≈ 0.972 µM) | 2 µg/mL (≈ 7.77 µM) | 0.13 µg/mL (≈ 0.505 µM) | 8 µg/mL (≈ 31.1 µM) | > 64 µg/mL | – | – | – | – | – | –
O=C1c2cccc3c(N4CCCC4)ccc(c23)C(=O)N1O [Example 18, 2-Hydroxy-6-(pyrrolidin-1-yl)-benzo[de]isoquinoline-1,3-dione] | – | 2 µg/mL (≈ 7.08 µM) | 4 µg/mL (≈ 14.2 µM) | > 64 µg/mL | 1 µg/mL (≈ 3.54 µM) | 1 µg/mL (≈ 3.54 µM) | 4 µg/mL (≈ 14.2 µM) | – | – | – | – | – | –
Cc1cc2c3c(cccc3c1)C(=O)N(O)C2=O [Example 21, 2-Hydroxy-5-methyl-benzo[de]isoquinoline-1,3-dione] | – | 4 µg/mL (≈ 17.6 µM) | 2 µg/mL (≈ 8.8 µM) | 8 µg/mL (≈ 35.2 µM) | 1 µg/mL (≈ 4.4 µM) | 16 µg/mL (≈ 70.4 µM) | 64 µg/mL (≈ 282 µM) | – | – | – | – | – | –
CC(=O)OCCOc1cc2c3c(cccc3c1)C(=O)N(O)C2=O [Example 23, 2-Hydroxy-5-(2-acetoxy-ethoxy)-benzo[de]isoquinoline-1,3-dione] | – | 4 µg/mL (≈ 12.7 µM) | 2 µg/mL (≈ 6.34 µM) | 16 µg/mL (≈ 50.7 µM) | 1 µg/mL (≈ 3.17 µM) | > 64 µg/mL | > 64 µg/mL | – | – | – | – | – | –
COc1cc2c3c(cccc3c1N1CCCCC1)C(=O)N(O)C2=O [Example 35, 2-Hydroxy-5-methoxy-6-(piperidin-1-yl)-benzo[de]isoquinoline-1,3-dione] | – | 2 µg/mL (≈ 6.13 µM) | 64 µg/mL (≈ 196 µM) | > 64 µg/mL | 64 µg/mL (≈ 196 µM) | 1 µg/mL (≈ 3.06 µM) | 4 µg/mL (≈ 12.3 µM) | – | – | – | – | – | –
O=C1c2cccc3c4c(cc(c23)C(=O)N1O)OCOC4 [Example 45, 5-Hydroxy-11H-8,10-dioxa-5-aza-benzo[de]anthracene-4,6-dione] | – | 0.25 µg/mL (≈ 0.922 µM) | 0.13 µg/mL (≈ 0.479 µM) | 0.5 µg/mL (≈ 1.84 µM) | 0.13 µg/mL (≈ 0.479 µM) | 1 µg/mL (≈ 3.69 µM) | 8 µg/mL (≈ 29.5 µM) | – | – | – | – | – | –
O=C1c2ccc([N+](=O)[O-])c3c([N+](=O)[O-])ccc(c23)C(=O)N1O [Example 48, 2-Hydroxy-6,7-dinitro-benzo[de]isoquinoline-1,3-dione] | – | 8 µg/mL (≈ 26.4 µM) | 4 µg/mL (≈ 13.2 µM) | 16 µg/mL (≈ 52.8 µM) | 4 µg/mL (≈ 13.2 µM) | 2 µg/mL (≈ 6.6 µM) | 1 µg/mL (≈ 3.3 µM) | – | – | – | – | – | –
O=C1c2cccc3c(N4CCCCC4)c(Br)cc(c23)C(=O)N1O [Example 49, 5-Bromo-2-hydroxy-6-(piperidine-1-yl)-benzo[de]isoquinoline-1,3-dione] | – | 1 µg/mL (≈ 2.67 µM) | 4 µg/mL (≈ 10.7 µM) | 64 µg/mL (≈ 171 µM) | 8 µg/mL (≈ 21.3 µM) | 2 µg/mL (≈ 5.33 µM) | 64 µg/mL (≈ 171 µM) | – | – | – | – | – | –
CN(C)c1c(Br)cc2c3c(cccc13)C(=O)N(O)C2=O [Example 53, 5-Bromo-6-dimethylamino-2-hydroxy-benzo[de]isoquinoline-1,3-dione] | – | 2 µg/mL (≈ 5.97 µM) | 2 µg/mL (≈ 5.97 µM) | 64 µg/mL (≈ 191 µM) | 1 µg/mL (≈ 2.98 µM) | 4 µg/mL (≈ 11.9 µM) | 32 µg/mL (≈ 95.5 µM) | – | – | – | – | – | –
Cl.N[C@H]1CCN(c2c(Br)cc3c4c(cccc24)C(=O)N(O)C3=O)C1 [Example 54, (S)-6-(3-Amino-pyrrolidin-1-yl)-5-bromo-2-hydroxy-1H-benzo[de]isoquinoline-1,3-dione, Hydrochloride] | – | 2 µg/mL | 0.5 µg/mL | 2 µg/mL | 0.5 µg/mL | 8 µg/mL | 4 µg/mL | – | – | – | – | – | –
N#Cc1cc2c3c(cccc3c1N1CCCC1)C(=O)N(O)C2=O [Example 57, 5-Cyano-2-hydroxy-6-(pyrrolidin-1-yl)-benzo[de]isoquinoline-1,3-dione] | – | 1 µg/mL (≈ 3.25 µM) | 0.5 µg/mL (≈ 1.63 µM) | 32 µg/mL (≈ 104 µM) | 0.5 µg/mL (≈ 1.63 µM) | 4 µg/mL (≈ 13 µM) | 32 µg/mL (≈ 104 µM) | – | – | – | – | – | –
CC(=O)Nc1cc2c3c(cccc3c1N1CCCC1)C(=O)N(O)C2=O [Example 64, 5-Acetamido-2-hydroxy-6-(pyrrolidin-1yl)-benzo[de]isoquinoline-1,3-dione] | – | 64 µg/mL (≈ 189 µM) | 32 µg/mL (≈ 94.3 µM) | > 64 µg/mL | 16 µg/mL (≈ 47.1 µM) | > 64 µg/mL | > 64 µg/mL | – | – | – | – | – | –
CC(=O)Nc1cc2c3c(cccc3c1N1CCCCC1)C(=O)C(O)C2=O (stereo not drawn) [Example 65] | 252 to 255 °C | – | – | – | – | – | – | – | – | – | – | – | –
CC(=O)Nc1cc2c3c(cccc3c1[SH]1CCNCC1)C(=O)C(O)C2=O (stereo not drawn) [Example 67] | 292 to 295 °C | – | – | – | – | – | – | – | – | – | – | – | –
Nc1cc2c3c(cccc3c1[SH]1CCNCC1)C(=O)N(O)C2=O [Example 73] | 270 to 274 °C | – | – | – | – | – | – | – | – | – | – | – | –
CC(C)NCC1CCN(c2c(Cl)cc3c4c(cccc24)C(=O)N(O)C3=O)C1.O=C(O)C(F)(F)F (stereo not drawn) [Example 86] | – | – | – | – | – | – | – | 2.0 µg/mL | 0.5 µg/mL | 8.0 µg/mL | 0.5 µg/mL | 4.0 µg/mL | 4.0 µg/mL
NC1CCN(c2c(Cl)cc3c4c(cccc24)C(=O)N(O)C3=O)C1.O=C(O)C(F)(F)F (stereo not drawn) [Example 99] | – | – | – | – | – | – | – | 1.0 µg/mL | 1.0 µg/mL | 2.0 µg/mL | 0.5 µg/mL | 8.0 µg/mL | 4.0 µg/mL
Cc1cc2c3c(cccc3c1Br)C(=O)N(O)C2=O [Example 104, 6-Bromo-5-methyl-2-hydroxy-benzo[de]isoquinoline-1,3-dione] | – | 0.5 µg/mL (≈ 1.63 µM) | 0.25 µg/mL (≈ 0.817 µM) | > 64 µg/mL | 0.25 µg/mL (≈ 0.817 µM) | 4 µg/mL (≈ 13.1 µM) | > 64 µg/mL | – | – | – | – | – | –
O=C1c2cccc3c([N+](=O)[O-])c(Br)cc(c23)C(=O)N1O [Example 108, 5-Bromo-2-hydroxy-6-nitro-benzo[de]isoquinoline-1,3-dione] | – | 2 µg/mL (≈ 5.93 µM) | 0.25 µg/mL (≈ 0.742 µM) | 8 µg/mL (≈ 23.7 µM) | 0.5 µg/mL (≈ 1.48 µM) | 4 µg/mL (≈ 11.9 µM) | 16 µg/mL (≈ 47.5 µM) | – | – | – | – | – | –
O=C1c2cc([N+](=O)[O-])cc3c(N4CCCC4)c([N+](=O)[O-])cc(c23)C(=O)N1O [Example 111, 2-Hydroxy-5,8-dinitro-6-(pyrrolidin-1-yl)-benzo[de]isoquinoline-1,3-dione] | – | 32 µg/mL (≈ 86 µM) | 2 µg/mL (≈ 5.37 µM) | > 64 µg/mL | 4 µg/mL (≈ 10.7 µM) | 8 µg/mL (≈ 21.5 µM) | > 64 µg/mL | – | – | – | – | – | –
O=C1c2cccc3c4c(cc(c23)C(=O)N1O)OCN(C1CC1)C4 [Example 131] | – | – | – | – | – | – | – | 32 µg/mL | 8.0 µg/mL | 32 µg/mL | 8.0 µg/mL | >64 µg/mL | >64 µg/mL
O=C1c2cccc3c(N4CCCC4)c(F)cc(c23)C(=O)N1O [Example 134, 5-Fluoro-2-hydroxy-6-(pyrrolidin-1-yl)-benzo[de]isoquinoline-1,3-dione] | – | 1 µg/mL (≈ 3.33 µM) | 0.5 µg/mL (≈ 1.67 µM) | > 64 µg/mL | 0.5 µg/mL (≈ 1.67 µM) | 1 µg/mL (≈ 3.33 µM) | 8 µg/mL (≈ 26.6 µM) | – | – | – | – | – | –
CN(C)CCN1C(=O)c2cccc3cc([N+](=O)[O-])cc(c23)C1=O [Mitonafide, mitonafide, reference compound] | – | 16 µg/mL (≈ 51.1 µM) | 8 µg/mL (≈ 25.5 µM) | 32 µg/mL (≈ 102 µM) | – | 32 µg/mL (≈ 102 µM) | 4 µg/mL (≈ 12.8 µM) | – | – | – | – | – | –
